Measured values as given in patent US11179438B1, “Chicken cathelicidins as a cancer therapy” (King Abdulaziz University, priority 2021, dated 2021).
Like-named read-outs stand apart in the source and are kept apart here. Ends that are not written are not given here.

Assays:
[1] = test system: human colon cancer cell line (HCT116); assay: Cell viability assay (CCK-8), HCT116; type: cell-based; conditions: 72 h
Procedure: (§1) The breast (MCF-7) and colon cancer (HCT116) cell lines were purchased from the American Type Culture Collection (Manassas, Va., USA) and maintained at 37° C. in a 1:1 mixture of Dulbecco's modified Eagle's medium DMEM high glucose (4.5 g/L) supplemented with 10% FBS in Corning®T75 flasks containing 1.2 g/l sodium bicarbonate (Sigma-Aldrich, St. Louis, Mo., USA), 2.5 mM L-glutamine (Invitrogen Life Technologies), 15 mM HEPES, and 0.5 mM sodium pyruvate supplemented with 400 ng/ml hydrocortisone (Sigma-Aldrich) and 10% fetal bovine serum (PAA Laboratories, Pasching, Austria) in a humidity incubator with 5% CO2 and 95% air. The culture medium was refreshed every 2-3 days for a period of 5-7 days to allow for recovery from cryopreservation and for confluency to be reached. For cell subculturing, the cells were digested with 0.25% trypsin and 0.03% EDTA solution (Invitrogen Life Technologies). Upon reaching 90% confluency, cell numbers were counted. The density of cells was 5 λ103 cells/cm^2. After that, the MCF-7 cells were seeded into three 96 well plates and treated with three chicken cathelicidins peptides for three period of incubations (24 h-48 h-72 h) (Li et al., 2014).
(§2) To assess the altered cell viability, Cell Counting Kit-8 (CCK-8) assay (Dojindo Laboratories, Kumamoto, Japan) was performed. Briefly, the cells were seeded in 96-well plates at 5×10^3 cells/well containing 180 μl of medium and cultured for up to 72 h. At the end of each experiment, 5 μl of CCk-8 solution (5 mg/ml) was added into each well, and the cells were incubated for 2 h at 37° C. The optical density value was measured by using BioTek microplate reader (Dynatech Laboratories Inc., Chantilly, Va., USA) at 450 nm. The median inhibition concentration (IC50) values were calculated using the probity model, and the inhibition rate of cell proliferation was calculated as: inhibition rate (%)=1−A450 (test)/A450 (control)×100%. Data were calculated from three independent experiments, each performed in triplicate (Li et al., 2014).

[2] = test system: breast (MCF-7) and colon cancer (HCT116) cell lines; type: cell-based, human; conditions: for decline in the cell growth / survival rate: 48 h; for decline in the cell growth: 40 μg/ml, both cell lines; for growth: 72 h incubation, high concentration for cathelicidin-2 and -3, breast and colon cancer cell lines; for survival rate: cell line not stated
Procedure: as §1, §2

[3] = test system: Caspase-3 gene; assay: Expression of caspase-3 gene in MCF-7 cells (RT-PCR); type: cell-based, human
Procedure: (§3) Total RNA was isolated from MCF-7 cells after chicken cathelicidins treatment using EZ RNA Clean Up Plus DNase Kit (EZ BioResearch, St Louis, Mo., USA)) following the manufacturer's instructions. RT-PCR was performed by using 1 μg of total RNA samples in the Access RT-PCR System (Bioneer Corporation Co., Ltd, South Korea) under the following conditions: first-strand DNA was synthesized with 12 cycles at 37° C. for 10 sec, 48° C. for 4 min and 60° C. for 30 sec and finally, heat inactivation at 95° C. for 5 mins then denatured at 94° C. for 5 min for the first cycle but for 30 sec for the additional 35 cycles; annealing according to Table 2 for 30 sec and extension at 72° C. for 2 min; and a final extension at 72° C. for 10 min. The PCR products were then subjected to electrophoresis in a 1.2% agarose gel and stained with ethidium bromide.
(§4) For RT-qPCR, cDNA was synthesized by using 0.5 μg of total RNA with a SuperScriptIII® Cells Direct cDNA Synthesis kit (Bioneer, Inc, Daejeon, Republic of Korea). The levels of IL-18, cyclin D1, cyclin A1, caspase-3 and 7 mRNA were amplified in triplicate using the SYBR-Green® Real-time PCR master mix (Biotool LLC, Houston, Tex., USA) on a LightCycler®480 Real-Time PCR system (Roche, Basel, Switzerland). […] The relative levels of gene expression were quantified by using the comparative CT method of ^−ΔΔCt (Livak and Schmittgen, 2001).

[4] = test system: Caspase-7 gene; assay: Expression of caspase-7 gene in MCF-7 cells (RT-PCR); type: cell-based, human
Procedure: as §3, §4

[5] = test system: breast cancer cells (MCF-7); assay: Cell viability assay (CCK-8), MCF-7; type: cell-based, human; conditions: 72 h
Procedure: as §1, §2

[6] = moderate concentration (20 μg/ml)

Compound | development rate ([1]; low concentration) [%] | development rate [1, 6] [%] | decline in the cell growth [2] | growth [2] [%] | caspase-3 gene expression relative to untreated cells [3] | caspase-7 gene expression relative to untreated cells [4] | development rate ([5]; low concentration) [%] | development rate [5, 6] [%] | survival rate ([2]; low concentration (10 μg/ml)) [%] | survival rate ([2]; moderate concentration (printed 10 μg/ml)) [%]
RVKRFWPLVPVAINTVAAGINLYKAIRRK [Cathelicidin-3] | 65 | 43.5 | about 7% | 16 | two times greater | two-fold | 73 | 73 |  | 
RFGRFLRKIRRFRPKVTITIQGSARF [Cathelicidin-2] | 61.3 | 24 | 10% | 7 | two times greater | two-fold | 72 | 44 |  | 
CC[C@H](C)[C@H](NC(=O)[C@H](CCCCN)NC(=O)[C@H](CCC(=O)O)NC(=O)[C@H](CCCCN)NC(=O)[C@H](CO)NC(=O)[C@H](CCCCN)NC(=O)[C@H](CCCNC(=N)N)NC(=O)[C@H](Cc1ccccc1)NC(=O)[C@H](Cc1ccccc1)NC(=O)[C@H](CC(=O)O)NC(=O)CNC(=O)[C@H](CC(C)C)NC(=O)[C@@H](N)CC(C)C)C(=O)NCC(=O)N[C@@H](CCCCN)C(=O)N[C@@H](CCC(=O)O)C(=O)N[C@@H](Cc1ccccc1)C(=O)N[C@@H](CCCCN)C(=O)N[C@@H](CCCNC(=N)N)C(=O)N[C@H](C(=O)N[C@H](C(=O)N[C@@H](CCC(N)=O)C(=O)N[C@@H](CCCNC(=N)N)C(=O)N[C@H](C(=O)N[C@@H](CCCCN)C(=O)N[C@@H](CC(=O)O)C(=O)N[C@@H](Cc1ccccc1)C(=O)N[C@@H](CC(C)C)C(=O)N[C@@H](CCCNC(=N)N)C(=O)N[C@@H](CC(N)=O)C(=O)N[C@@H](CC(C)C)C(=O)N[C@H](C(=O)N1CCC[C@H]1C(=O)N[C@@H](CCCNC(=N)N)C(=O)N[C@H](C(=O)N[C@@H](CCC(=O)O)C(=O)N[C@@H](CO)C(=O)O)[C@@H](C)O)C(C)C)[C@@H](C)CC)C(C)C)[C@@H](C)CC [Cathelicidin-1] |  |  |  |  |  |  |  |  | 25 | 12
